Measured values taken from patent publication US20230167094A1, “H4 ANTAGONIST COMPOUNDS” (Heptares Therapeutics Limited, priority 2020, published 2023).

Tests used:
[1] = target: hERG (Homo sapiens, UniProt Q12809); assay: hERG assay (QPatch automated patch clamp, CHO cells); assay type: cell-based; conditions: CHO cells stably expressing hERG, 1, 3, 10 and 30 μM, tail current, room temperature; for IC50: read-out: hERG pIC50 (converted)
Procedure: All experiments were performed on the QPatch automated patch clamp platform.
Series resistance (4-15 MΩ) was compensated by >80%.

[2] = target: T1, human H4 receptor (Homo sapiens, UniProt Q9H3N8); assay: H4 Antagonist Functional Dynamic Mass Redistribution Assay; assay type: cell-based; conditions: HEKf cells expressing human H4 receptor, antagonist mode vs histamine EC80, pKb by Cheng-Prusoff; for Kb: read-out: Human H4 DMR fpKb (converted)
T1 construct: expressed in transfected cells; host or cells: HEKf cells infected with baculovirus
T1 sequence (Q9H3N8 whole entry): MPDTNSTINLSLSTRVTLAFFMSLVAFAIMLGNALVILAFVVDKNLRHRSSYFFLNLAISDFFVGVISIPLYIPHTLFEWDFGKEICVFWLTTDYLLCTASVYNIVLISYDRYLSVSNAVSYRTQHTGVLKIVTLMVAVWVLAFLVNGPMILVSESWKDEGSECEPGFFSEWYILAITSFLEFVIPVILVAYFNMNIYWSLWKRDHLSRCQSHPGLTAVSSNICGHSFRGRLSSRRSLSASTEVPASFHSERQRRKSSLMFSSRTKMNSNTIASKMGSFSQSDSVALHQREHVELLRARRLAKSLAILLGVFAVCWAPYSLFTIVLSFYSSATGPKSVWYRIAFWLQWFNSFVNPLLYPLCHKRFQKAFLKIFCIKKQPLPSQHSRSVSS
Procedure: H4 Antagonist Functional Dynamic Mass Redistribution Assay
HEKf cells were infected using baculovirus expressing the human H4 receptor, plated into fibronectin-coated EPIC plates at a density of 10,000 cells/well and incubated overnight at 37° C. The medium on cells was changed to […] HBSS with 20 mM HEPES per well and 30 nL DMSO were added per well by LabCyte ECHO acoustic dispensing. Following 2 h equilibration at room temperature, 30 nL of H4 ligands prepared in DMSO were stamped by LabCyte ECHO acoustic dispensing into seeded EPIC plates and cellular dynamic mass redistribution was monitored using a Corning EPIC plate reader. Following 45 min measurement, 30 nL/well of histamine EC80 was added and monitored to obtain antagonist assay data. Maximum baseline-corrected responses in pm were used to generate concentration response curves. EC50 values were generated using a 4-parameter logistical fit equation to quantify agonist potencies. Functional antagonist affinity values were generated using the Cheng-Prusoff equation to calculate a pKb value using the antagonist assay data.

Chain of hERG (Q12809 whole entry): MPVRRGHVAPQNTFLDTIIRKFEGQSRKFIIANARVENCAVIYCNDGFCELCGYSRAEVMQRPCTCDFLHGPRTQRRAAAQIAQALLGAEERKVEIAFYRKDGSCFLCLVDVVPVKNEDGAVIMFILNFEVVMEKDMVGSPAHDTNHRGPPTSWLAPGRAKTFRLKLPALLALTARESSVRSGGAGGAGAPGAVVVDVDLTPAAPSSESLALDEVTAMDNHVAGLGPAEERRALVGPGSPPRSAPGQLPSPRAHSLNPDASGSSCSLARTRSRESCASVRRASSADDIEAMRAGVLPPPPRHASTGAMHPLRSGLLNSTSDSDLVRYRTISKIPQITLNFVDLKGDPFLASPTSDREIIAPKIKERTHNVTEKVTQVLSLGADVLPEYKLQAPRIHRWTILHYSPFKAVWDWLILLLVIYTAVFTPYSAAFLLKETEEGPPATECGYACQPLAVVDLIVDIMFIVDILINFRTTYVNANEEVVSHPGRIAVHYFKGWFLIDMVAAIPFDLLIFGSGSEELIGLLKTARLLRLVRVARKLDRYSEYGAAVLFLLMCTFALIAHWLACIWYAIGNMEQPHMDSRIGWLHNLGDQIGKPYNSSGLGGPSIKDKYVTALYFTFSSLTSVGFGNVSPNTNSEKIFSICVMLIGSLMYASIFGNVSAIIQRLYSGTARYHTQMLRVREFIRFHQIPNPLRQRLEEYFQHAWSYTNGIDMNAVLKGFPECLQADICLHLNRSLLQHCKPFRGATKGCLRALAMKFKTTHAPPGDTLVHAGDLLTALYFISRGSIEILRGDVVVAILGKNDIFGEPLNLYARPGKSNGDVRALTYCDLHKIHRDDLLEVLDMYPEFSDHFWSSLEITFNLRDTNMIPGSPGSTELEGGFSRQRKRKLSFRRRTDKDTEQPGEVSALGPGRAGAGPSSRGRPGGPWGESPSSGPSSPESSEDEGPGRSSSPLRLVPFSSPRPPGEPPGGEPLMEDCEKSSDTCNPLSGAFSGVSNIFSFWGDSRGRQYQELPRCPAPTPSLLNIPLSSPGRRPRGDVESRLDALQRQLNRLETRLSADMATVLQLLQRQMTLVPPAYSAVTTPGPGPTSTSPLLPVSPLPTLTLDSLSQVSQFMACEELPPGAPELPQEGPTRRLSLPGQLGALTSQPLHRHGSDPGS

SMILES | IC50 [1] [nM] | Kb [2] [nM] | hERG pIC50 [1] | Human H4 DMR fpKb [2]
CNC1CN(c2cc(-c3nn(C)cc3C)nc(N)n2)C1 [Example 8, 4-(1,4-Dimethyl-1H-pyrazol-3-yl)-6-(3-(methylamino)azetidin-1-yl)pyrimidin-2-amine] | 23400 | 7.94 |  | 
Nc1nc(-c2cnn(C(F)(F)F)c2)cc(N2CC(N)C2)n1 [Example 6, 4-(3-Aminoazetidin-1-yl)-6-(1-(trifluoromethyl)-1H-pyrazol-4-yl)pyrimidin-2-amine] | > 100000 | 12.6 |  | 
CNC1CN(c2cc(-c3cnn(C(C)C)c3C)nc(N)n2)C1 [Example 22, 4-(1-Isopropyl-5-methyl-1H-pyrazol-4-yl)-6-(3-(methylamino)azetidin-1-yl)pyrimidin-2-amine] | > 100000 | 7.94 |  | 
CNC1CN(c2cc(-c3cn(C)nc3C)nc(N)n2)C1 [Example 18, 4-(1,3-Dimethyl-1H-pyrazol-4-yl)-6-(3-(methylamino)azetidin-1-yl)pyrimidin-2-amine] | > 100000 | 7.94 |  | 
CNC1CN(c2cc(-c3cnn(CC(F)F)c3)nc(N)n2)C1 [Example 9, 4-(1-(2,2-Difluoroethyl)-1H-pyrazol-4-yl)-6-(3-(methylamino)azetidin-1-yl)pyrimidin-2-amine] | > 100000 | 12.6 |  | 
CNC1CN(c2cc(-c3cnn(CC(F)(F)F)c3)nc(N)n2)C1 [Example 2, 4-(3-(Methylamino)azetidin-1-yl)-6-(1-(2,2,2-trifluoroethyl)-1H-pyrazol-4-yl)pyrimidin-2-amine] | > 100000 | 15.8 |  | 
CCn1cc(-c2cc(N3CC(NC)C3)nc(N)n2)cn1 [Example 3, 4-(1-Ethyl-1H-pyrazol-4-yl)-6-(3-(methylamino)azetidin-1-yl)pyrimidin-2-amine] | > 100000 | 3.98 |  | 
CNC1CN(c2cc(-c3cc(C)[nH]n3)nc(N)n2)C1 [Example 35, 4-(5-Methyl-1H-pyrazol-3-yl)-6-(3-(methylamino)azetidin-1-yl)pyrimidin-2-amine] | > 31600 | 3.98 |  | 
CNC1CN(c2cc(-c3cnn(C)c3Br)nc(N)n2)C1 [Example 30, 4-(5-Bromo-1-methyl-1H-pyrazol-4-yl)-6-(3-(methylamino)azetidin-1-yl)pyrimidin-2-amine] | > 100000 | 1.58 |  | 
CN[C@@H]1CCN(c2cc(NCC3CC3)nc(N)n2)C1 [PF-3893787, reference compound] | 7940 | 0.794 |  | 
CCn1cc(-c2cc(N3CC(NC)C3)nc(N)n2)c(C)n1 [Example 13, 4-(1-Ethyl-3-methyl-1H-pyrazol-4-yl)-6-(3-(methylamino)azetidin-1-yl)pyrimidin-2-amine] | > 100000 | 10 |  | 
CNC1CN(c2cc(-c3cn(C)nc3Br)nc(N)n2)C1 [Example 31, 4-(3-Bromo-1-methyl-1H-pyrazol-4-yl)-6-(3-(methylamino)azetidin-1-yl)pyrimidin-2-amine] | > 31600 | 7.94 |  | 
CNC1CN(c2cc(-c3cc(Cl)nn3C)nc(N)n2)C1 [Example 26, 4-(3-Chloro-1-methyl-1H-pyrazol-5-yl)-6-(3-(methylamino)azetidin-1-yl)pyrimidin-2-amine] | > 100000 | 15.8 |  | 
CNC1CN(c2cc(-c3n[nH]c(C(F)(F)F)c3C)nc(N)n2)C1 [Example 17, 4-(4-Methyl-5-(trifluoromethyl)-1H-pyrazol-3-yl)-6-(3-(methylamino)azetidin-1-yl)pyrimidin-2-amine] | > 100000 | 1 |  | 
CC(C)c1cc(N2CC[C@@H](N)C2)nc(N)n1 [JNJ-39758979, reference compound] |  |  | ≤4.0 | 8.5
CN1CCN(C(=O)c2cc3cc(Cl)ccc3[nH]2)CC1 [JNJ-7777120, reference compound] | ≥ 100000 |  |  | 
CNC1CN(c2cc(-c3cnn(C(F)F)c3C)nc(N)n2)C1 [Example 16, 4-(1-(Difluoromethyl)-5-methyl-1H-pyrazol-4-yl)-6-(3-(methylamino)azetidin-1-yl)pyrimidin-2-amine] | > 100000 | 2 |  | 
CNC1CN(c2cc(-c3cn(C(C)C)nc3C)nc(N)n2)C1 [Example 11, 4-(1-Isopropyl-3-methyl-1H-pyrazol-4-yl)-6-(3-(methylamino)azetidin-1-yl)pyrimidin-2-amine] | > 100000 | 10 |  | 

SMILES | IC50 [1] [nM] | Kb [2] [nM] | hERG pIC50 [1] | Human H4 DMR fpKb [2]
CNC1CN(c2cc(-c3cn(CC(F)(F)F)nc3C)nc(N)n2)C1 [Example 19, 4-(3-Methyl-1-(2,2,2-trifluoroethyl)-1H-pyrazol-4-yl)-6-(3-(methylamino)azetidin-1-yl)pyrimidin-2-amine] | > 31600 | 50.1 |  | 
CNC1CN(c2cc(-c3cnn(CCF)c3)nc(N)n2)C1 [Example 10, 4-(1-(2-Fluoroethyl)-1H-pyrazol-4-yl)-6-(3-(methylamino)azetidin-1-yl)pyrimidin-2-amine] | > 100000 | 5.01 |  | 
CNC1CN(c2cc(-c3cn[nH]c3)nc(N)n2)C1 [Example 38, 4-(3-(Methylamino)azetidin-1-yl)-6-(1H-pyrazol-4-yl)pyrimidin-2-amine] | > 31600 | 5.01 |  | 
CCNC1CN(c2cc(-c3cnn(C(F)(F)F)c3)nc(N)n2)C1 [Example 7, 4-(3-(Ethylamino)azetidin-1-yl)-6-(1-(trifluoromethyl)-1H-pyrazol-4-yl)pyrimidin-2-amine] | 42700 | 7.94 |  | 
CNC1CN(c2cc(-c3[nH]nc(Cl)c3Cl)nc(N)n2)C1 [Example 42, 4-(4,5-Dichloro-1H-pyrazol-3-yl)-6-(3-(methylamino)azetidin-1-yl)pyrimidin-2-amine] | > 100000 | 6.31 |  | 
CCc1cc(-c2cc(N3CC(NC)C3)nc(N)n2)n[nH]1 [Example 41, 4-(5-Ethyl-1H-pyrazol-3-yl)-6-(3-(methylamino)azetidin-1-yl)pyrimidin-2-amine] | > 31600 | 7.94 |  | 
CNC1CN(c2cc(-c3cn(C)nc3Cl)nc(N)n2)C1 [Example 29, 4-(3-Chloro-1-methyl-1H-pyrazol-4-yl)-6-(3-(methylamino)azetidin-1-yl)pyrimidin-2-amine] | > 100000 | 1.58 |  | 
Cc1cc(C)c2nc(-c3cnc(NCCCC4CCN(C)CC4)nc3C)[nH]c2c1 [Toreforant, reference compound] | 3160 | 12.6 |  | 
CNC1CN(c2cc(-c3cc(C(F)(F)F)nn3C)nc(N)n2)C1 [Example 27, 4-(1-Methyl-3-(trifluoromethyl)-1H-pyrazol-5-yl)-6-(3-(methylamino)azetidin-1-yl)pyrimidin-2-amine] | 44700 | 15.8 |  | 
CNC1CN(c2cc(-c3c[nH]nc3C)nc(N)n2)C1 [Example 39, 4-(3-Methyl-1H-pyrazol-4-yl)-6-(3-(methylamino)azetidin-1-yl)pyrimidin-2-amine] | > 31600 | 3.98 |  | 
CCn1cc(-c2cc(N3CC[C@@H](NC)C3)nc(N)n2)c(C)n1 [Example 14, (R)-4-(1-Ethyl-3-methyl-1H-pyrazol-4-yl)-6-(3-(methylamino)pyrrolidin-1-yl)pyrimidin-2-amine] | 28800 | 100 |  | 
CCn1ncc(-c2cc(N3CC(NC)C3)nc(N)n2)c1C [Example 21, 4-(1-Ethyl-5-methyl-1H-pyrazol-4-yl)-6-(3-(methylamino)azetidin-1-yl)pyrimidin-2-amine] | > 100000 | 2.51 |  | 
CNC1CN(c2cc(-c3cnn(C(F)F)c3)nc(N)n2)C1 [Example 1, 4-(1-(Difluoromethyl)-1H-pyrazol-4-yl)-6-(3-(methylamino)azetidin-1-yl)pyrimidin-2-amine] | > 100000 | 1.26 |  | 
CCc1cc(-c2cc(N3CC(NC)C3)nc(N)n2)n(C)n1 [Example 25, 4-(3-Ethyl-1-methyl-1H-pyrazol-5-yl)-6-(3-(methylamino)azetidin-1-yl)pyrimidin-2-amine] |  | 100 |  | 
CNC1CN(c2cc(-c3cnn(CC(F)(F)F)c3C)nc(N)n2)C1 [Example 12, 4-(5-Methyl-1-(2,2,2-trifluoroethyl)-1H-pyrazol-4-yl)-6-(3-(methylamino)azetidin-1-yl)pyrimidin-2-amine] | 38900 | 7.94 |  | 
CNC1CN(c2cc(-c3cn(C(F)F)nc3C)nc(N)n2)C1 [Example 4, 4-(1-(Difluoromethyl)-3-methyl-1H-pyrazol-4-yl)-6-(3-(methylamino)azetidin-1-yl)pyrimidin-2-amine] | > 100000 | 2.51 |  | 
CCc1[nH]nc(-c2cc(N3CC(NC)C3)nc(N)n2)c1C [Example 40, 4-(5-Ethyl-4-methyl-1H-pyrazol-3-yl)-6-(3-(methylamino)azetidin-1-yl)pyrimidin-2-amine] | > 31600 |  |  | 
CNC1CN(c2cc(-c3c[nH]nc3C(F)(F)F)nc(N)n2)C1 [Example 37, 4-(3-(Methylamino)azetidin-1-yl)-6-(3-(trifluoromethyl)-1H-pyrazol-4-yl)pyrimidin-2-amine] | > 31600 | 31.6 |  | 
